Converted amounts (≈) assume the structure as drawn. The source made the active and inactive calls. The calls are words filed in the database; no cut-off is given here.
Assays:
A549 [1] = test: Antiproliferative activity against human A549 cells assessed as cell growth inhibition rate at 20 ug/mL incubated for 48 hrs by MTT assay relative to control; assay type: functional; parameters: scale not given: the % may be the effect or the level left; details: dose 20 µg/ml
A549 [2] = test: Antiproliferative activity against human A549 cells assessed as cell growth inhibition incubated for 48 hrs by MTT assay; assay type: functional, cell-based; details: A549, 48 h
A549 [3] = test: Induction of apoptosis in human A549 cells assessed as chromatin condensation at 2.5 to 10 uM incubated for 48 hrs by DAPI staining based fluorescence microscopic analysis; assay type: functional, cell-based; details: dose 2.5-10 µM
A549 [4] = test: Antitumor activity against human A549 cells assessed as decrease in phosphorylation of Erk5 incubated for 48 hrs by Western blotting analysis; assay type: functional, cell-based; details: dose 2.5-10 µM
A549 [5] = test: Induction of apoptosis in human A549 cells assessed as inhibition of colony formation incubated for 10 days by crystal violet staining based assay; assay type: functional, cell-based; details: dose 2.5-10 µM, time 10.0 day
A549 [6] = test: Induction of apoptosis in human A549 cells assessed as formation of apoptotic bodies at 2.5 to 10 uM incubated for 48 hrs by DAPI staining based fluorescence microscopic analysis; assay type: functional, cell-based; details: dose 2.5-10 µM
A549 [7] = test: Induction of apoptosis in human A549 cells assessed as irregular cell morphology at 2.5 to 10 uM incubated for 48 hrs by light microscopic analysis; assay type: functional, cell-based; details: dose 2.5-10 µM

| Structure (SMILES) | Activity (A549 [1]) [%] | other results |
| --- | --- | --- |
| O=C(c1ccc(F)cc1)N1CC=C(c2c[nH]c3ncccc23)CC1 | 59.94 | – |
| Clc1ccc(CN2CC=C(c3c[nH]c4ncccc34)CC2)cc1 | 0.74 | – |
| O=C(c1ccccc1F)N1CCC(c2c[nH]c3ncccc23)CC1 | 48.02 | – |
| FC(F)(F)Oc1ccc(CN2CC=C(c3c[nH]c4ncccc34)CC2)cc1 | 46.56 | – |
| COc1ccc(C(=O)N2CC=C(c3c[nH]c4ncccc34)CC2)cc1 | 70.89 | IC50 (A549 [2]): 10.4 mg/L (≈ 31.3 µM) |
| S=C(c1ccc(Cl)cc1)N1CC=C(c2c[nH]c3ncccc23)CC1 | 51.43 | – |
| C1=C(c2c[nH]c3ncccc23)CCN(Cc2ccccc2)C1 | 44.74 | – |
| O=C(c1ccc(Cl)cc1)N1CCC(c2c[nH]c3ncccc23)CC1 | 50.17 | – |
| Brc1ccc(CN2CC=C(c3c[nH]c4ncccc34)CC2)cc1 | -25.78 | – |
| c1ccc2cc(CN3CCC(c4c[nH]c5ncccc45)CC3)ccc2c1 | 76.69 | – |
| C1=C(c2c[nH]c3ncccc23)CCN(Cc2ccc3ccccc3c2)C1 | 90.08 | Activity (A549 [3]): Active; Activity (A549 [4]): Dose-Dependent Effect; IC50 (A549 [2]): 4.56 mg/L (≈ 13.4 µM); Activity (A549 [5]): Dose-Dependent Effect; Activity (A549 [6]): Active; Activity (A549 [7]): Active |
| Clc1ccc(CN2CCC(c3c[nH]c4ncccc34)CC2)cc1Cl | 32.22 | – |
| N#Cc1ccc(C(=O)N2CC=C(c3c[nH]c4ncccc34)CC2)cc1 | 21.45 | – |
| O=C(c1ccc(Br)cc1)N1CC=C(c2c[nH]c3ncccc23)CC1 | 71.11 | IC50 (A549 [2]): 11 mg/L (≈ 28.7 µM) |
| Clc1ccccc1CN1CC=C(c2c[nH]c3ncccc23)CC1 | 84.18 | IC50 (A549 [2]): 12 mg/L (≈ 37 µM) |
| O=C(c1ccc(C(F)(F)F)cc1)N1CC=C(c2c[nH]c3ncccc23)CC1 | 65.74 | – |
| O=[N+]([O-])c1ccc(CN2CC=C(c3c[nH]c4ncccc34)CC2)cc1 | 16.85 | – |
| O=C(c1ccc(Cl)cc1)N1CC=C(c2c[nH]c3ccccc23)CC1 | 67.52 | – |
| Cc1ccc(CN2CC=C(c3c[nH]c4ncccc34)CC2)cc1 | 54.95 | – |
| O=C(c1ccccc1F)N1CC=C(c2c[nH]c3ccccc23)CC1 | 50.26 | – |

| Structure (SMILES) | Activity (A549 [1]) [%] | other results |
| --- | --- | --- |
| O=C(c1ccccc1F)N1CC=C(c2c[nH]c3ncccc23)CC1 | 75.54 | IC50 (A549 [2]): 8.52 mg/L (≈ 26.5 µM) |
| O=C(c1ccccc1Cl)N1CC=C(c2c[nH]c3ncccc23)CC1 | 52.62 | – |
| Clc1ccc(CN2CC=C(c3c[nH]c4ccccc34)CC2)cc1Cl | 56.41 | – |
| C1=C(c2c[nH]c3ccccc23)CCN(Cc2ccc3ccccc3c2)C1 | 70.17 | – |
| Fc1ccccc1CN1CC=C(c2c[nH]c3ncccc23)CC1 | 3.55 | – |
| O=C(c1ccccc1)N1CC=C(c2c[nH]c3ncccc23)CC1 | 58.37 | – |
| Fc1ccccc1C(=S)N1CC=C(c2c[nH]c3ncccc23)CC1 | 65.92 | – |
| O=C(c1cccc(Cl)c1)N1CC=C(c2c[nH]c3ncccc23)CC1 | 73.66 | IC50 (A549 [2]): 10.3 mg/L (≈ 30.6 µM) |
| Fc1ccc(CN2CC=C(c3c[nH]c4ncccc34)CC2)cc1 | 43.89 | – |
| Nc1ccc(C(=O)N2CC=C(c3c[nH]c4ncccc34)CC2)cc1 | 45.12 | – |
| O=C(c1ccc([N+](=O)[O-])cc1)N1CC=C(c2c[nH]c3ncccc23)CC1 | 69.77 | – |
| Clc1ccc(CN2CC=C(c3c[nH]c4ncccc34)CC2)cc1Cl | 80.28 | IC50 (A549 [2]): 7.33 mg/L (≈ 20.5 µM) |
| Clc1cccc(CN2CC=C(c3c[nH]c4ncccc34)CC2)c1 | 52.55 | – |
| O=C(c1ccc(Cl)cc1)N1CC=C(c2c[nH]c3ncccc23)CC1 | 82.78 | Activity (A549 [3]): Active; Activity (A549 [4]): Dose-Dependent Effect; IC50 (A549 [2]): 6.23 mg/L (≈ 18.4 µM); Activity (A549 [5]): Dose-Dependent Effect; Activity (A549 [6]): Active; Activity (A549 [7]): Active |
| Cc1ccc(C(=O)N2CC=C(c3c[nH]c4ncccc34)CC2)cc1 | 41.24 | – |
| O=C(c1ccc(Cl)c(Cl)c1)N1CC=C(c2c[nH]c3ncccc23)CC1 | 66.12 | – |
| COc1ccc(CN2CC=C(c3c[nH]c4ncccc34)CC2)cc1 | -3.33 | – |
| FC(F)(F)c1ccc(CN2CC=C(c3c[nH]c4ncccc34)CC2)cc1 | 44.64 | – |
| N#Cc1ccc(CN2CC=C(c3c[nH]c4ncccc34)CC2)cc1 | 9.76 | – |
| O=C(c1ccc2ccccc2c1)N1CC=C(c2c[nH]c3ncccc23)CC1 | 62.25 | – |

Source: ChEMBL document CHEMBL5390246, “Design, synthesis and SAR of novel 7-azaindole derivatives as potential Erk5 kinase inhibitor with anticancer activity” (Bioorg Med Chem, 2023)
